In patent publication US8901164B2, “Amphipathic and other double-sided alpha-helix mimetics based on a 1,2-diphenylacetylene scaffold” (University of Maryland, Baltimore, priority 2013, dated 2014) one finds IC50 data, which are given here for one molecule.

Structures are written as SMILES.

Broadly, the IC50 is the concentration that gives 50% inhibition.

The assay addresses Mcl-1-Bak-BH3 complex (Homo sapiens, UniProt Q07820). The assay is described as follows: Antagonism of the Mcl-1-Bak-BH3 complex (preliminary studies). The format is binding. The conditions noted are these: read-out: IC50 for antagonizing the Mcl-1-Bak-BH3 complex.

Sequence of Mcl-1-Bak-BH3 complex (Q07820 172-327 limits assumed, one chain of several): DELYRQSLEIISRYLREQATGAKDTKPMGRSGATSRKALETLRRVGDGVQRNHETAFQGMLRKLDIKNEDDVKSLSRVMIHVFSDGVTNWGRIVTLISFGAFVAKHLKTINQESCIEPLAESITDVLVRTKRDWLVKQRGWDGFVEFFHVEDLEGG

Regarding `CC(C)COc1ccc(C(=O)NCCN)c(C#Cc2cc(OCc3ccccc3)ccc2NC(=O)C(=O)O)c1OCC(C)C` [Compound 14, 2-((2-((6-((2-Aminoethyl)carbamoyl)-2,3-diisobutoxyphenyl)ethynyl)-4-(benzyloxy)phenyl)amino)-2-oxoacetic acid], the IC50 was 3.24 ± 0.48 µM.
